Laboratory results as given in patent US9713613B2, “Methods and compositions for the treatment of cancer and related hyperproliferative disorders” (priority 2007, dated 2017).

Assays:
SREBP-1 = test: Western blot of SREBP-1 processing in DU145 cells; type: cell-based, human; details: 6 hrs, IGF1
Experimental: To examine whether fatostatin A affects the proteolytic activation of SREBPs, whole cell lysates of DU145 cells treated with fatostatin A were analyzed by western blots with an antibody against the NH2 terminus of SREBP-1 (FIG. 3A). […] Similar results were obtained for SREBP-2 with an antibody against its COOH terminus (FIG. 3B).
DU145 prostate cancer cells were seeded on a 6-well plate at a density of 2×10^5 cells/well in a serum-free MEM incubated at 37° C. for overnight. The cells were then treated with DMSO or fatostatin A ([…]) in presence of IGF1 (1 μg/mL). After 6 hrs of incubation, the cells were harvested in PBS and lysated in an SDS buffer. The samples were separated on a 10% SDS-PAGE gel and blotted by using rabbit anti-SREBP-1 and anti-SREBP-2 antibodies. The specific bands were visualized by using enhanced chemiluminescent (ECL) detection reagents (Amersham).

endogenous SREBPs [1] = test: Luciferase reporter assay (pSRE-Luc, normalized by β-gal) in HEK293 cells; type: cell-based, human; parameters: Luc/Gal: dose or concentration left out as unconfirmed
Experimental: On day 0, HEK293 cells were plated out in triplicate at a density of 5×10^3/well onto a 96-well plate in a Dulbecco's modified Eagle's medium with 10% fetal bovine serum, 100 units/mL penicillin, and 100 μg/mL streptomycin sulfate. On day 2, the cells were transiently co-transfected with the following plasmids by using Lipofectamine reagent (Invitrogen): 0.4 μg/well pSRE-Luc (an SRE-1-driven luciferase reporter construct; Hua et al., 1995 J Biol Chem 270, 29422-7), and 0.1 μg/well a b-gal reporter in which the expression of β-gal is controlled by an actin promoter in a final volume of […]. After incubation for 5 hrs at 37° C., the cells were washed with phosphate-buffered saline and then incubated in 100 μl of Dulbecco's modified Eagle's medium with 10% lipid-depleted serum, […] penicillin, and 100 μg/mL streptomycin sulfate in the absence or presence of fatostatin A. After 20 hrs of incubation, the cells in each well were lysed with 20 μL of 1× Reporter Lysis Buffer (Promega), and aliquots were used for measurement of luciferase (10 μL) and β-galactosidase (10 μL) activities. For luciferase assay, photon production was detected as counts per second in a Wallac 1420 ARVOsx multilabel counter (PerkinElmer). For β-galactosidase assays, hydrolysis of O-nitrophenyl-β-D-galactosidase was measured after incubation for 0.5 h at 37° C. by a microplate reader at the wave length of 405 nm (Tecan). The luciferase activity (counts per second) was normalized by the activity of β-galactosidase (OD units). For overexpression of the N-terminal matured form of SREBP-1c, pCMV-SREBP-1c (1-436) was co-transfected with pSRE-Luc. pSRE-Luc and pCMV-SREBP-1c (1-436) were provided by J. L. Goldstein (University of Texas Southwestern Medical Center). […]

3T3-L1 cells = test: adipogenesis assay (formation of oil droplets); type: cell-based, mouse; parameters: key: +: The analogues that completely inhibited the formation of oil droplets in cells were scored to be adipogenesis-inhibiting analogues; details: formation of oil droplets in cells
Experimental: The adipogenesis assay was performed as described (Choi et al., 2003).

endogenous SREBPs [2] = test: SREBP activation assay (pSRE-Luc luciferase reporter) in CHO-K1 cells; type: cell-based, Chinese hamster
Experimental: To confirm that fatostatin impairs the function of SREBPs, the ability of endogenous SREBPs to activate transcription of an SREBP-responsive reporter gene was measured in CHO-K1 cells in the presence or absence of fatostatin (FIG. 18A).
Luciferase reporter assay. On day 0, CHO-K1 cells were plated out onto a 96-well plate in medium A (a 1:1 mixture of Ham's F-12 medium and Dulbecco's modified Eagle's medium, with 5% fetal bovine serum, 100 units/mL penicillin, and 100 μg/mL streptomycin sulfate). On day 2, the cells were transiently co-transfected with pSRE-Luc (an SRE-1-driven luciferase reporter construct) (Hua et al., 1995) and pAc-β-gal (β-gal reporter in which the expression of β-gal is controlled by an actin promoter), using Lipofectamine reagent (Invitrogen). After incubation for 5 h, the cells were washed with phosphate-buffered saline (PBS), and then incubated, in the absence or presence of fatostatin, in medium B (a 1:1 mixture of Ham's F-12 medium and Dulbecco's modified Eagle's medium, with 5% lipid-depleted serum, 100 units/mL penicillin, 100 μg/mL streptomycin sulfate, […], and 50 mM sodium mevalonate). After 20 h of incubation, the cells in each well were lysed, and aliquots were used to measure luciferase and β-galactosidase activities. Luciferase activity was normalized by the activity of β-galactosidase. For overexpression of the N-terminal matured form of SREBP-1c, pCMV-SREBP-1c(1-436) was co-transfected with pSRE-Luc and pAc-β-gal.
Standard SREBP activation assays were performed on the exemplary compounds identified in Table 4 as per the method for Fatostatin A in Example 1. The ability of endogenous SREBPs to activate transcription of an SREBP-responsive reporter gene was measured in the presence or absence of compounds 45-55 and 19 (FIG. 28), compounds 56-61 and 19 (FIG. 29) and compounds 62-66 (FIG. 30) at 5 μM in CHOK1 cells. […] The inhibitory concentrations of compounds 53 (FIG. 31) and compounds 58 and 61 (FIG. 32) were determined.

[3] = entries 1, 19-34 (FIG. 16), None = 15.0759

Compound | amounts of mature and precursor forms of SREBP-1 (western blot) (SREBP-1) | activation of the SRE-controlled luciferase reporter gene by endogenous SREBPs (endogenous SREBPs [1]; HEK293 cells, lipid-free serum, varied concentrations) | ability of exogenously expressed mature form of SREBP-1 to activate the reporter gene (endogenous SREBPs [1]; HEK293 cells, pCMV-SREBP-1c + pSRE-Luc) | Luc/Gal (endogenous SREBPs [1]; [3]) | Luc/Gal (endogenous SREBPs [1]; entries 1, 35-39 (FIG. 17), None = 18) | Luc/Gal (endogenous SREBPs [1]; entries 1, 40-44 (FIG. 17), None = 8.2181) | Luc/Gal (endogenous SREBPs [1]; entries 1-18 (FIG. 15), none = 9.4426) | Inhibition of adipogenesis (3T3-L1 cells) | activation of the SRE luciferase reporter gene by endogenous SREBPs (endogenous SREBPs [2]; CHO-K1 cells, lipid-free serum) | inhibition at 5 µM (endogenous SREBPs [2]; Cricetulus griseus, CHO-K1, 5 μM in CHOK1 cells) [%]
CCCc1cc(-c2nc(-c3ccc(C)cc3)cs2)ccn1 [Compound 1, 2-propyl-4-(4-p-tolylthiazol-2-yl)pyridine] | decreased the amounts of the 68 KDa mature form of SREBP-1 in a dose-dependent manner | decreased in a concentration dependent manner | failed to impair | 7.5537 | 9.414 | 3.4437 | 6.2297 | + | decreased activation of the reporter gene | –
CCCc1cc(-c2nc(-c3ccc(NS(C)(=O)=O)cc3)cs2)ccn1 [Compound 19, N-(4-(2-(2-propylpyridin-4-yl)thiazol-4-yl)phenyl)methanesulfonamide] | – | – | – | 4.1981 | – | – | – | + | – | ~45
